Measured values as given in patent publication US20130072459A1, “PHARMACEUTICAL COMPOSITION FOR THE PREVENTION OR THE TREATMENT OF NON-ALCOHOLIC FATTY LIVER DISEASE AND THE METHOD FOR PREVENTION OR TREATMENT OF NON-ALCOHOLIC FATTY LIVER DISEASE USING THE SAME” (priority 2010, published 2013).

Tests used:
[1] = system: high fat diet-induced simple steatosis; experiment: Preventive effects on high fat diet-induced simple steatosis in mice (drug-mixed diet, 8/16/24 weeks); format: in vivo, C57BL/6 mice; details: for serum alanine aminotransferase (ALT), result in words: at 16 weeks and 24 weeks; for serum alanine aminotransferase (ALT), result in words / hepatic triglyceride content, result in words: vs high fat diet-fed group; for hepatic triglyceride content, result in words: hepatic triglyceride analysis and histological analysis
Method: 6-week old male C57BL/6 mice were stabilized and then divided into 5 groups. One group was given a standard diet containing 10% fat (trade name: D12450B, manufactured by Research Diets), and one group was given a high fat diet containing 60% fat (trade name: D12492, manufactured by Research Diets). Remaining 3 groups as drug-treated groups were given a drug-mixed diet specially formulated by mixing a high fat diet and a drug. With regard to tartrate of Compound 1, in order to supply 100 mg/kg and 300 mg/kg which are daily target doses of tartrate of Compound 1 based on the daily average high fat diet consumption amount, diets were formulated by mixing a high fat diet and 0.2% by weight and 0.5% by weight of tartrate of Compound 1, respectively. With regard to sitagliptin phosphate, in order to supply 300 mg/kg which is a daily target dose based on the daily average high fat diet consumption amount, a diet was formulated by mixing a high fat diet and about 0.5% by weight of sitagliptin phosphate. Individual drug-treated groups were given the drug-mixed diets thus formulated. 8 weeks, 16 weeks, and 24 weeks after a supply of each diet, animals were dissected and sera were separated. Then, serum ALT levels (alanine aminotransferase, GPT, glutamic pyruvate transaminase) were measured using a blood analyzer (Table 1 and FIG. 1). The excised liver was homogenized in a 5(v/v) % Triton-X solution, and a triglyceride working reagent [which was prepared by mixing a free glycerol reagent (F6428, Sigma) and a triglyceride reagent (T2449, Sigma) in a ratio of 4:1(v/v)] was added thereto, followed by measurement of an absorbance at 540 nm to determine the content of triglyceride (Table 1 and FIG. 2). In addition, in order to observe histological fat distribution, a portion of the excised liver was fixed in a 10(v/v) % formalin solution and then a tissue sample was prepared, followed by hematoxylin & eosin staining and photographing using an image analysis program (computerized image analysis) (FIG. 3, the violet-stained portion represents a normal liver tissue, and white-stained portion represents lipid droplets).

[2] = system: high fat diet-induced simple steatosis; experiment: Therapeutic effects on high fat diet-induced simple steatosis in rats; format: in vivo, Wistar rats
Method: 6-week old male rats (Wistar rats) were stabilized and then divided into 2 groups. Animal groups were respectively given a standard diet containing 10% fat (trade name: D12450B, manufactured by Research Diets) and a high fat diet containing 60% fat (trade name: D12492, manufactured by Research Diets) for 24 weeks. […] In order to supply 10 mg/kg which is a daily target dose of tartrate of Compound 1, a diet was formulated by mixing a high fat diet and 0.03% by weight of tartrate of Compound 1. 24 weeks after a supply of each diet, animals were divided into a high fat diet-fed group (n=8), a group fed with a high fat diet+0.03% by weight of tartrate of Compound 1 (n=8), and a standard diet-fed group (n=8), followed by feeding for another 14 weeks. Then, animals were dissected and sera were separated. Then, serum ALT levels (alanine aminotransferase), GPT, (glutamic pyruvate transaminase) were measured using a blood analyzer (FIG. 4). The excised liver was homogenized in a 5(v/v) % Triton-X solution, and a triglyceride working reagent [which was prepared by mixing a free glycerol reagent (F6428, Sigma) and a triglyceride reagent (T2449, Sigma) in a ratio of 4:1(v/v)] was added thereto, followed by measurement of an absorbance at 540 nm to determine the content of triglyceride (FIG. 5). In addition, in order to observe histological fat distribution, a portion of the excised liver was fixed in a 10(v/v) % formalin solution and then a tissue sample was prepared, followed by hematoxylin & eosin(HE) staining and photographing using an image analysis program (computerized image analysis) (FIG. 6, the violet-stained portion represents a normal liver tissue, and white portion represents lipid droplets). Thereafter, an area of lipid droplets/unit area of a sample was calculated (FIG. 7).

[3] = 8 weeks, high fat diet + 0.5% drug (target 300 mg/kg/day)
[4] = 16 weeks, high fat diet + 0.5% drug (target 300 mg/kg/day)
[5] = 24 weeks, high fat diet + 0.5% drug (target 300 mg/kg/day)
[6] = 8 weeks, high fat diet + 0.2% drug (target 100 mg/kg/day)
[7] = 16 weeks, high fat diet + 0.2% drug (target 100 mg/kg/day)
[8] = 24 weeks, high fat diet + 0.2% drug (target 100 mg/kg/day)
[9] = high fat diet + 0.03% drug for 14 weeks, vs high fat diet-fed group

| SMILES | Hepatic TG [1, 3] [mg/g wet liver] | Plasma ALT [1, 3] [U/L] | Hepatic TG [1, 4] [mg/g wet liver] | Plasma ALT [1, 4] [U/L] | Hepatic TG [1, 5] [mg/g wet liver] | Plasma ALT [1, 5] [U/L] | serum alanine aminotransferase (ALT), result in words [1] | hepatic triglyceride content, result in words [1] | Hepatic TG [1, 6] [mg/g wet liver] | Plasma ALT [1, 6] [U/L] | Hepatic TG [1, 7] [mg/g wet liver] | Plasma ALT [1, 7] [U/L] | Hepatic TG [1, 8] [mg/g wet liver] | Plasma ALT [1, 8] [U/L] | serum alanine aminotransferase (ALT), result in words ([2]; high fat diet 24 weeks then high fat diet + 0.03% drug (target 10 mg/kg/day) for 14 weeks) | hepatic triglyceride content in hepatic triglyceride analysis, result in words [2, 9] | hepatic triglyceride content in histological analysis (area of lipid droplets/unit area), result in words [2, 9] |
| --- | --- | --- | --- | --- | --- | --- | --- | --- | --- | --- | --- | --- | --- | --- | --- | --- | --- |
| N[C@@H](CC(=O)N1CCn2c(nnc2C(F)(F)F)C1)Cc1cc(F)c(F)cc1F [sitagliptin phosphate, sitagliptin] | 11.8 ± 2.7 | 26.5 ± 1.8 | 10.0 ± 1.2 | 22.2 ± 1.3 | 36.8 ± 6.6 | 27.0 ± 1.7 | significant decreases | significant decrease | – | – | – | – | – | – | – | – | – |
| CC(C)(C)OC[C@@H]1C(=O)NCCN1C(=O)C[C@H](N)Cc1cc(F)c(F)cc1F [tartrate of Compound 1, (R)-4-[(R)-3-amino-4-(2,4,5-trifluorophenyl)-butanoyl]-3-(t-butoxymethyl)piperazin-2-one] | 7.4 ± 2.0 | 39.3 ± 3.6 | 15.8 ± 2.0 | 27.5 ± 1.5 | 15.1 ± 3.5 | 43.8 ± 4.3 | significant decreases | significant decrease | 15.5 ± 2.0 | 20.6 ± 0.9 | 21.5 ± 0.7 | 20.5 ± 1.2 | 38.2 ± 5.8 | 37.5 ± 4.2 | significant decrease | significant decrease | significant decrease |
